Experimental data reported in patent US10537575B2, “Phosphodiesterase inhibitors to repair brain and/or retinal injury in human newborns” (priority 2016, dated 2020).

Key:
[1] = oral sildenafil; known; cited from earlier work
[2] = tested on: PDE6; conditions: known; cited from earlier work
[3] = tested on: Long-Evans rat pups (term neonatal HIE model); assay: Retinal histology, thicknesses of retinal layers at P30; format: in vivo; parameters: Effect size, RPE thickness / Effect size, OS thickness / Effect size, IS thickness / Effect size, ONL thickness / Effect size, OPL thickness / Effect size, INL thickness / Effect size, IPL thickness / Effect size, total thickness: scale not given here; conditions: for Effect size, INL thickness / Effect size, IPL thickness / Effect size, IS thickness / Effect size, ONL thickness / Effect size, OPL thickness / Effect size, OS thickness / Effect size, RGC/FL thickness / Effect size, RPE thickness / Effect size, total thickness: compared to HI vehicle rat pups; for INL thickness / IPL thickness / IS thickness / ONL thickness / OPL thickness / OS thickness (outer segment) / RGC/FL thickness / RPE thickness / Total thickness: left eye, P30
Protocol: A well-established rat model of term neonatal HIE (Vannucci model) (Patel S D et al., 2014, Patel S D et al., 2015; […] et al., 2009; […] et al., 2009; Rice J E, 3rd et al., 1981) and produces concomitant retinal injury (Jung S et al., 2015). Rats undergoing both the ligation and hypoxia were considered the HI group. Sham operated rats (identical procedure as the HI group, but without ligation and hypoxia) served as the control group. […] Different doses of sildenafil-i.e., low (2 mg/kg), medium (10 mg/kg), and high (50 mg/kg)-were used in the HI and sham rat pups (n=4-7 animals/group). At P30, the animals were sacrificed, and the eyes were enucleated. Retinal histology was performed as per a previously described protocol (Jung S et al., 2015). […] Then, the retinal layer thickness was plotted against eccentricity to obtain the spider graphs (FIG. 7B).

[4] = tested on: Long-Evans rat pups (term neonatal HIE model); assay: Brain structure, hematoxylin and eosin coronal sections at P30; conditions: HI
Protocol: A well-established Vannucci rat model of term neonatal HIE, which combined a left common carotid artery ligation and a 2 hour exposure to hypoxia (8% oxygen) in 10-day-old (P10) rat pups, was used for the experiments, since this model is generally recognized to mimic the brain injuries observed in human term asphyxiated newborns. Briefly, the 10-day-old male Long-Evans rat pups were weighed and then deeply anesthetized with an intraperitoneal injection of fentanyl (0.2 mg/kg) and midazolam (1 mg/kg) to the point of unresponsiveness to noxious stimulation. Lidocaine-prilocaine cream (EMLA®; AstraZeneca Inc.) was applied to the ventral neck skin 30 minutes before surgery. The skin was cleaned with 2% chlorhexidine solution followed by 70% alcohol. A vertical incision was made along the ventral surface of the neck. The left common carotid artery was located, isolated, and then ligated with a single tight suture. Following the unilateral ligation, the skin incision was closed with an adhesive (n-butyl cyanoacrylate; 3 M VetBond Tissue Adhesive®; 3 M USA). The anesthesia was reversed with an intraperitoneal injection of naloxone (0.1 mg/kg) and flumazenil (1 mg/kg). […] For each rat pup, anesthesia time and surgical time were kept to a minimal time of less than 5-10 minutes. The pups were allowed to recover for approximately 1.5 h after surgery and then were placed in a sealed hypoxia chamber (Plastic Concepts, North Billerica, USA). The sealed chamber was infused with nitrogen until a level of 8% oxygen was reached, which was maintained for 2 h (oxygen analyzer model 600, Engineered Systems & Designs, Newark, Del.). The pups were allowed to recover for 30 minutes and then were returned to their cages with the mother. The rats undergoing the whole procedure were considered as the hypoxic-ischemic (HI) group (n=10-12 animals/groups). Sham operated rat pups (identical procedure as the HI group, but not the ligation and hypoxia) served as the control group (n=10-12 animals/groups). […]

[5] = tested on: Long-Evans rat pups (neonatal HI); assay: Retinal immunohistochemistry after neonatal HI; format: in vivo; conditions: sildenafil 2, 10 or 50 mg/kg 7 days, P30
Source text: Neonatal hypoxia-ischemia (HI) was induced in male Long-Evans rat pups at postnatal day 10 (P10) by left common carotid ligation followed by 2-hour exposure to 8% oxygen. […] At P30, rats were sacrificed and their eyes were extracted.

**Q.** With CCCc1nn(C)c2c(=O)[nH]c(-c3cc(S(=O)(=O)N4CCN(C)CC4)ccc3OCC)nc12 [sildenafil] as the compound, how does the oral bioavailability [1] read?
**A.** good oral bioavailability

**Q.** And the PDE6 inhibition [2]?
**A.** inhibits PDE6, but with a reduced efficiency

**Q.** What about the “thicknesses of affected retinal layers, response” value ([3]; HI, 10 mg/kg and 50 mg/kg doses) of the same compound?
**A.** significantly improved response in terms of thicknesses of all the affected layers

**Q.** And the “Effect size, INL thickness” value ([3]; HI, Sild 2 mg/kg)?
**A.** 4.94

**Q.** And the “Effect size, IPL thickness” value ([3]; HI, Sild 2 mg/kg)?
**A.** 0.11

**Q.** And the “Effect size, IS thickness” value ([3]; HI, Sild 2 mg/kg)?
**A.** 2.16

**Q.** And the “Effect size, ONL thickness” value ([3]; HI, Sild 2 mg/kg)?
**A.** 0.71

**Q.** And the “Effect size, OPL thickness” value ([3]; HI, Sild 2 mg/kg)?
**A.** 4.91

**Q.** What about the “Effect size, OS thickness” value ([3]; HI, Sild 2 mg/kg) of the same compound?
**A.** 0.40

**Q.** And the “Effect size, RGC/FL thickness” value ([3]; HI, Sild 2 mg/kg)?
**A.** 1.37

**Q.** What about the “Effect size, RPE thickness” value ([3]; HI, Sild 2 mg/kg) of the same compound?
**A.** 0.25

**Q.** What about the “Effect size, total thickness” value ([3]; HI, Sild 2 mg/kg) of the same compound?
**A.** 14.72

**Q.** And the “Effect size, INL thickness” value ([3]; HI, Sild 10 mg/kg)?
**A.** 19.74

**Q.** And the “Effect size, IPL thickness” value ([3]; HI, Sild 10 mg/kg)?
**A.** 42.08

**Q.** And the “Effect size, IS thickness” value ([3]; HI, Sild 10 mg/kg)?
**A.** −7.24

**Q.** What about the “Effect size, ONL thickness” value ([3]; HI, Sild 10 mg/kg) of the same compound?
**A.** −19.22

**Q.** And the “Effect size, OPL thickness” value ([3]; HI, Sild 10 mg/kg)?
**A.** 8.67

**Q.** And the “Effect size, OS thickness” value ([3]; HI, Sild 10 mg/kg)?
**A.** −8.55

**Q.** And the “Effect size, RGC/FL thickness” value ([3]; HI, Sild 10 mg/kg)?
**A.** 18.37

**Q.** What about the “Effect size, RPE thickness” value ([3]; HI, Sild 10 mg/kg) of the same compound?
**A.** −0.73

**Q.** What about the “Effect size, total thickness” value ([3]; HI, Sild 10 mg/kg) of the same compound?
**A.** 53.09

**Q.** And the “Effect size, INL thickness” value ([3]; HI, Sild 50 mg/kg)?
**A.** 21.65

**Q.** What about the “Effect size, IPL thickness” value ([3]; HI, Sild 50 mg/kg) of the same compound?
**A.** 41.40

**Q.** And the “Effect size, IS thickness” value ([3]; HI, Sild 50 mg/kg)?
**A.** −7.50

**Q.** And the “Effect size, ONL thickness” value ([3]; HI, Sild 50 mg/kg)?
**A.** −17.36

**Q.** What about the “Effect size, OPL thickness” value ([3]; HI, Sild 50 mg/kg) of the same compound?
**A.** 8.95

**Q.** And the “Effect size, OS thickness” value ([3]; HI, Sild 50 mg/kg)?
**A.** −9.86

**Q.** And the “Effect size, RGC/FL thickness” value ([3]; HI, Sild 50 mg/kg)?
**A.** 16.59

**Q.** What about the “Effect size, RPE thickness” value ([3]; HI, Sild 50 mg/kg) of the same compound?
**A.** −0.59

**Q.** And the “Effect size, total thickness” value ([3]; HI, Sild 50 mg/kg)?
**A.** 53.25

**Q.** What about the “topographic retinal thickness (spider graph)” value ([3]; HI, low-dose of sildenafil) of the same compound?
**A.** did not seem to reverse any of the HI-induced changes in retinal thickness, except in the inferior retina

**Q.** What about the “topographic retinal thickness (spider graph)” value ([3]; HI, medium and high doses of sildenafil) of the same compound?
**A.** nearly normal inner retina at almost all retinal eccentricities

**Q.** What about the INL thickness ([3]; HI, Sild 2 mg/kg) of the same compound?
**A.** 14.71 ± 2.57 μm

**Q.** And the IPL thickness ([3]; HI, Sild 2 mg/kg)?
**A.** 2.95 ± 2.60 μm

**Q.** And the IS thickness ([3]; HI, Sild 2 mg/kg)?
**A.** 23.83 ± 3.12 μm

**Q.** What about the ONL thickness ([3]; HI, Sild 2 mg/kg) of the same compound?
**A.** 70.88 ± 2.88 μm

**Q.** And the OPL thickness ([3]; HI, Sild 2 mg/kg)?
**A.** 5.72 ± 3.05 μm

**Q.** And the “OS thickness (outer segment)” value ([3]; HI, Sild 2 mg/kg)?
**A.** 38.14 ± 3.66 μm

**Q.** What about the RGC/FL thickness ([3]; HI, Sild 2 mg/kg) of the same compound?
**A.** 2.28 ± 2.28 μm

**Q.** What about the RPE thickness ([3]; HI, Sild 2 mg/kg) of the same compound?
**A.** 8.88 ± 0.24 μm

**Q.** And the Total thickness ([3]; HI, Sild 2 mg/kg)?
**A.** 167.28 ± 2.63 μm

**Q.** What about the INL thickness ([3]; HI, Sild 10 mg/kg) of the same compound?
**A.** 29.50 ± 1.70 μm

**Q.** What about the IPL thickness ([3]; HI, Sild 10 mg/kg) of the same compound?
**A.** 44.93 ± 7.35 μm

**Q.** What about the IS thickness ([3]; HI, Sild 10 mg/kg) of the same compound?
**A.** 14.43 ± 1.15 μm

**Q.** And the ONL thickness ([3]; HI, Sild 10 mg/kg)?
**A.** 50.95 ± 0.76 μm

**Q.** And the OPL thickness ([3]; HI, Sild 10 mg/kg)?
**A.** 9.48 ± 0.38 μm

**Q.** And the “OS thickness (outer segment)” value ([3]; HI, Sild 10 mg/kg)?
**A.** 29.18 ± 2.14 μm

**Q.** And the RGC/FL thickness ([3]; HI, Sild 10 mg/kg)?
**A.** 19.28 ± 3.36 μm

**Q.** And the RPE thickness ([3]; HI, Sild 10 mg/kg)?
**A.** 7.89 ± 0.35 μm

**Q.** What about the Total thickness ([3]; HI, Sild 10 mg/kg) of the same compound?
**A.** 205.64 ± 14.20 μm

**Q.** And the INL thickness ([3]; HI, Sild 50 mg/kg)?
**A.** 31.42 ± 1.66 μm

**Q.** What about the IPL thickness ([3]; HI, Sild 50 mg/kg) of the same compound?
**A.** 44.25 ± 11.86 μm

**Q.** What about the IS thickness ([3]; HI, Sild 50 mg/kg) of the same compound?
**A.** 14.16 ± 0.25 μm

**Q.** And the ONL thickness ([3]; HI, Sild 50 mg/kg)?
**A.** 52.81 ± 1.06 μm

**Q.** And the OPL thickness ([3]; HI, Sild 50 mg/kg)?
**A.** 9.76 ± 0.84 μm

**Q.** And the “OS thickness (outer segment)” value ([3]; HI, Sild 50 mg/kg)?
**A.** 27.87 ± 2.09 μm

**Q.** What about the RGC/FL thickness ([3]; HI, Sild 50 mg/kg) of the same compound?
**A.** 17.50 ± 4.07 μm

**Q.** And the RPE thickness ([3]; HI, Sild 50 mg/kg)?
**A.** 8.03 ± 0.27 μm

**Q.** What about the Total thickness ([3]; HI, Sild 50 mg/kg) of the same compound?
**A.** 205.80 ± 14.22 μm

**Q.** What about the photoreceptor degeneration ([3]; present example (rat pups)) of the same compound?
**A.** did not induce photoreceptor degeneration

**Q.** And the “total brain size, median (IQR)” value ([4]; high-dose sildenafil, not different from sham vehicle)?
**A.** 93.05 (91.53; 93.95)

**Q.** And the “total brain size, median (IQR)” value ([4]; low-dose sildenafil, p<0.05 vs sham vehicle)?
**A.** 92.19 (81.51; 97.58)

**Q.** And the “total brain size, median (IQR)” value ([4]; medium-dose sildenafil, not different from sham vehicle)?
**A.** 94.05 (84.4; 95.0)

**Q.** What about the “neuroinflammation, number of astrocytes in retina” value [5] of the same compound?
**A.** decreasing the number of astrocytes

**Q.** And the “number of retinal ganglion cells and bipolar cells” value [5]?
**A.** restored the number of retinal ganglion cells and bipolar cells
